Consider one compound from US20160279135A1, “THERAPIES FOR TREATING MYELOPROLIFERATIVE DISORDERS” (Gilead Sciences, Inc., priority 2013, published 2016).

Usually Cmax stands for the maximum level reached in the sampled fluid or tissue.

Data set [1] relates to p-AKT Ser473. In words: Western blot of AKT phosphorylation in UT-7/TPO cells. It is filed as cell-based. The settings on record: 2 h, then TPO 50 ng/mL 10 min, vs vehicle. The method, then: In addition, Compound B was examined for the effects on the PI3K signaling pathway by determining the levels of AKT and S6 phosphorylation with or without TPO activation. Two cell lines, BaF3/MPL and UT-7/TPO sensitive or responsive to TPO activation were used. The cells were starved (i.e. growing on medium having less FBS) in […] FBS/RPMI for two hours before treated with 0.1, 1.0, or 2.0 μM of Compound B or vehicle (0.1% DMSO in RPMI) for 2 hours at 37° C. To examine the TPO-activated phosphorylation, the cells were then treated or activated with 50 ng/mL of human recombinant TPO (Peprotech) for 10 minutes at 37° C. The TPO activation or treatment may reflect the conditions in diseased cells as the PI3K pathway is activated by TPO in myelofibrosis. After treating with compound and/or TPO, the cells were collected, lysed by lysis buffer (Cell Signaling), separated by SDS-PAGE, and analyzed by the Western blot using antibodies specific to p-AKT Ser473 or pS6 Ser235/236 (Cell Signaling). The phosphorylation levels in treated cells were calculated and compared to those of untreated cells (i.e. vehicle as negative control).
(Immunoblotting shows a protein as a band on a membrane.)

Data set [2] concerns p-S6RP. The data set can be described thus: flow cytometry of p-S6RP in TPO-stimulated CD34+ cells from MF patients on chronic ruxolitinib (Example 8). Format: cell-based, human. The settings on record: for percentage of the p-S6RP levels: 2 h, then TPO 50 ng/mL, one value per patient, TPO vehicle = 100. The method, then: (§1) In this study, PBMCs were isolated from the whole blood from five MF patients receiving chronic ruxolitinib treatment (rux 1-rux 5). The cells were treated with either vehicle, ruxolitinib, and/or Compound B for 2 hours then stimulated with TPO (50 ng/mL) for 10 minutes. Ruxolitinib at the dose of 1 or 20 nM and Compound B at the dose of 45, 200, or 700 nM were used.
The treated cells were then fixed, permeabilized and stained for FACS analysis using FACSCalibur analyzed using BD FACSDiva software.
On the technique in general: In flow cytometry, cells or beads pass a laser one at a time.

Data set [3] has as its system Pfeiffer cells. The data set can be described thus: CellTiter-Glo cell viability of Pfeiffer cells with IL6. Format: cell-based. The settings on record: Homo sapiens, 96 h, n=4, read-out: percentage of viable Pfeiffer cells, AVG; for viability at […]: 74 nM Compound B; for viability at 0.2 µM: 200 nM Compound B; for viability at 0.421 µM: 421 nM Compound B. The method, then: Next, Pfeiffer cells were treated with IL6 (0 or 3 ng/mL), Compound A (0, 136, 272, or 695 nM), and/or Compound B (0, 74, 200, or 421 nM) (n=4 per group) for 96 hours.
Cellular viability was determined using the CellTiter-Glo Luminescent Cell Viability Assay (Promega). The percentage of viable cells was normalized to the groups that were not treated with Compound A or Compound B, and standard deviation was calculated.

Data set [4] can be described thus: clinical. The settings on record: human, in vivo.
Text: For in vitro or in vivo studies, the effect amount of Compounds A, B, C, D, E, or ruxolinitib may be adjusted according to the experimental condition. Similarly, the effect amount of Compounds D1, D2, D3, D4, D5, D6, D7, D8, D9, E1, E2, E3, E4, E5, E6, E7, E8, E9, or F, may be adjusted according to the experimental condition for in vitro or in vivo studies. For example, compounds may be used in the amount of 0.001, 0.002, 0.003, 0.004, 0.005, 0.006, 0.007, 0.008, 0.009, 0.01, 0.02, 0.03, 0.04, 0.05, 0.06, 0.07, 0.08, 0.09, 0.1, 0.2, 0.3, 0.4, 0.5, 0.6, 0.7, 0.8, 0.9, 1.0, 1.5, 2.0, 2.5, 3.0, 3.5, 4.0, 5.0, 6.0, 7.0, 8.0, 9.0, or 10.0 μM. In some studies, the in vitro doses of the compounds may be calculated to correspond to the clinical doses of the compounds. The calculation may consider various factors, such as protein binding and plasma concentration. […] It is understood that the in vitro doses may differ, depend on the assay condition and other calculation factors, and that the clinical doses may differ depend on the disease indication and the patient condition.
as §1
Next, Pfeiffer cells were treated with IL6 (0 or 3 ng/mL), Compound A (0, 136, 272, or 695 nM), and/or Compound B (0, 74, 200, or 421 nM) (n=4 per group) for 96 hours. The doses in this assay may correspond to those used in a clinical setting. […] In addition, the in-vitro dose of 136 nM Compound A may correspond to the potential Caverage detected in patients receiving Compound A at 300 mg once a day.

Structures are written as SMILES. Values joined by “and” are separate entries in the source; they are usually repeats but may differ in a detail not shown here. Equal values may be shown once. Read-outs that look alike come from different tables or passages of the source.

Regarding `CC[C@H](Nc1ncnc2[nH]cnc12)c1nc2cccc(F)c2c(=O)n1-c1ccccc1` [Compound B, (S)-2-(1-((9H-purin-6-yl)amino)propyl)-5-fluoro-3-phenylquinazolin-4(3H)-one], the “reduced p-AKT levels” value in data set [1] (0.1 μM) was 11%; in data set [1] (1.0 μM), 44%; in data set [1] (2.0 μM), 55%. In addition, the “percentage of the p-S6RP levels” value in data set [2] (Compound B 45 nM) was 82% and 58% and 49% and 74% and 36%; in data set [2] (Compound B 200 nM), 62% and 46% and 38% and 63% and 33%; in data set [2] (Compound B 700 nM), 46% and 48% and 32% and 55% and 17%. In addition, the inhibition at 0.045 µM in data set [2] (Homo sapiens, Compound B 45 nM, TPO-stimulated cells vs vehicle, all five patients, read-out: p-S6RP levels decreased (inhibited) by) worked out at 40%. For the same compound, the inhibition at 0.2 µM in data set [2] (Homo sapiens, Compound B 200 nM, TPO-stimulated cells vs vehicle, all five patients, read-out: p-S6RP levels decreased (inhibited) by) was found to be 52%. The inhibition at 0.7 µM in data set [2] (Homo sapiens, Compound B 700 nM, TPO-stimulated cells vs vehicle, all five patients, read-out: p-S6RP levels decreased (inhibited) by) came to 60%. The viability at […] stood at 72% in data set [3] (IL6 0 ng/mL) and 95% in data set [3] (IL6 3 ng/mL). Moreover, the viability at 0.2 µM came out at 63% in data set [3] (IL6 0 ng/mL) and 91% in data set [3] (IL6 3 ng/mL). For the same compound, the viability at 0.421 µM in data set [3] (IL6 0 ng/mL) turned out to be 54%; in data set [3] (IL6 3 ng/mL) it was 83%. In data set [4], the “in-vitro dose corresponding to the potential Caverage” value was 0.2 µM. The “in-vitro dose corresponding to the potential Cmin” value in data set [4] amounted to 0.074 µM. The compound also returned a Cmax in data set [4] (150 mg) of 0.421 µM.
